Experimental data taken from ChEMBL document CHEMBL1147325, “13C-nmr spectral assignment and evaluation of the cytotoxic potential of rotenone” (1989).
In brackets after ≈: the same amount, converted by molar mass.

Key:
Assay type in all cases: functional
[1] = system: SK-MEL-2; experiment: Cytotoxicity against human SK-MEL-2 cells after 72 hrs; conditions: SK-MEL-2, 72 h, read-out: ED50 (the source's name)
[2] = system: Col2; experiment: Cytotoxicity against human Col2 cells after 72 hrs; conditions: Col2, 72 h, read-out: ED50 (the source's name)
[3] = Cytotoxicity against human BC1 cells after 72 hrs; conditions: BC1, 72 h, read-out: ED50 (the source's name)
[4] = system: Lu1; experiment: Cytotoxicity against human Lu1 cells; conditions: read-out: ED50 (the source's name)
[5] = system: KB; experiment: Cytotoxicity against human KB cells after 72 hrs; conditions: read-out: ED50 (the source's name)
[6] = system: HT-1080; experiment: Cytotoxicity against human HT1080 cells after 48 hrs; conditions: HT-1080, 48 h, read-out: ED50 (the source's name)
[7] = system: P388; experiment: Cytotoxicity against mouse P388 cells after 48 hrs; conditions: P388, 48 h, read-out: ED50 (the source's name)

C=C(C)[C@H]1Cc2c(ccc3c2O[C@@H]2COc4cc(OC)c(OC)cc4[C@@H]2C3=O)O1 [ROTENONE]
EC50 [1]: 0.092 µg/mL (≈ 0.233 µM)
EC50 [2]: 0.15 µg/mL (≈ 0.38 µM)
EC50 [3]: 0.039 µg/mL (≈ 0.0989 µM)
EC50 [4]: 0.044 µg/mL (≈ 0.112 µM)
EC50 [5]: 0.067 µg/mL (≈ 0.17 µM)
EC50 [6]: 0.047 µg/mL (≈ 0.119 µM)
EC50 [7]: 0.005 µg/mL (≈ 0.0127 µM)
